From PubChem BioAssay AID2060512 (Molecular Pharmacology Branch, DTP, NCI, 2025)
pIC50: −log10 of the molar value.

Tested on: 186277-243-T-J2-PDC complex spheroid viability
Assay: Anticancer human tumor 186277-243-T-J2-PDC patient-derived colon adenocarcinoma cell line growth inhibition [GQUAD]
Conditions: for pIC50: curve of first compound; for viability, T/C: stronger effect = lower value
Summary of the method: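 Tumor cells were grown as complex spheroids with HUVEC endothelial cells and mesenchymal stem cells as stroma. G-quadruplex stabilizers were combined with targeted agents over half-log dilutions from near the clinical Cmax, or from 10 microM.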

[1] = second compound 0.0316 µM, first compound 0.0316 µM
[2] = second compound 0.0316 µM, first compound 0.1 µM
[3] = second compound 0.0316 µM, first compound 0.316 µM
[4] = second compound 0.0316 µM, first compound 1 µM
[5] = second compound 0.0316 µM, first compound 3.16 µM
[6] = second compound 0.0316 µM, first compound 10 µM
[7] = second compound 0.1 µM, first compound 0.0316 µM
[8] = second compound 0.1 µM, first compound 0.1 µM
[9] = second compound 0.1 µM, first compound 0.316 µM
[10] = second compound 0.1 µM, first compound 1 µM
[11] = second compound 0.1 µM, first compound 3.16 µM
[12] = second compound 0.1 µM, first compound 10 µM
[13] = second compound 0.316 µM, first compound 0.0316 µM
[14] = second compound 0.316 µM, first compound 0.1 µM
[15] = second compound 0.316 µM, first compound 0.316 µM
[16] = second compound 0.316 µM, first compound 1 µM
[17] = second compound 0.316 µM, first compound 3.16 µM
[18] = second compound 0.316 µM, first compound 10 µM
[19] = second compound 1 µM, first compound 0.0316 µM
[20] = second compound 1 µM, first compound 0.1 µM
[21] = second compound 1 µM, first compound 0.316 µM
[22] = second compound 1 µM, first compound 1 µM
[23] = second compound 1 µM, first compound 3.16 µM
[24] = second compound 1 µM, first compound 10 µM
[25] = second compound 3.16 µM, first compound 0.0316 µM
[26] = second compound 3.16 µM, first compound 0.1 µM
[27] = second compound 3.16 µM, first compound 0.316 µM
[28] = second compound 3.16 µM, first compound 1 µM
[29] = second compound 3.16 µM, first compound 3.16 µM
[30] = second compound 3.16 µM, first compound 10 µM
[31] = second compound 10 µM, first compound 0.0316 µM
[32] = second compound 10 µM, first compound 0.1 µM
[33] = second compound 10 µM, first compound 0.316 µM
[34] = second compound 10 µM, first compound 1 µM
[35] = second compound 10 µM, first compound 3.16 µM
[36] = second compound 10 µM, first compound 10 µM
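Also: spheroids exposed to drugs for 7 days.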
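For viability, T/C in this document: 100% = DMSO vehicle control viability.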

In the case of `COc1ccc([C@@H](O)c2cc(-c3ncnc4cc(N5CCOCC5)ccc34)c(F)cc2Cl)nn1` + Cc1[nH]c2ccc(F)cc2c1-c1nc2c3cccnc3c3ncccc3c2[nH]1, the pIC50 (second compound 0.0316 µM) was 5.31, the pIC50 (second compound 0.1 µM) was 5.16 and the pIC50 (second compound 0.316 µM) was 5.19. It also gave a pIC50 (second compound 1 µM) of 5.23, a pIC50 (second compound 3.16 µM) of 5.30 and a pIC50 (second compound 10 µM) of 5.24. It also gave a viability, T/C [1] of 95.7%, a viability, T/C [2] of 101% and a viability, T/C [3] of 97.2%. It also gave a viability, T/C [4] of 80.9%, a viability, T/C [5] of 66.3% and a viability, T/C [6] of 25.9%. For the same molecule, the viability, T/C [7] was 94.5%, the viability, T/C [8] was 89.9% and the viability, T/C [9] was 104%. The viability, T/C [10] was 99.5%, the viability, T/C [11] was 85.2% and the viability, T/C [12] was 33.1%. The viability, T/C [13] was 105%, the viability, T/C [14] was 94.8% and the viability, T/C [15] was 103%. It also gave a viability, T/C [16] of 106%, a viability, T/C [17] of 81.5% and a viability, T/C [18] of 30.9%. It also gave a viability, T/C [19] of 89.2%, a viability, T/C [20] of 90% and a viability, T/C [21] of 115%. For the same molecule, the viability, T/C [22] was 102%, the viability, T/C [23] was 71.2% and the viability, T/C [24] was 32.4%. For the same molecule, the viability, T/C [25] was 93.4%, the viability, T/C [26] was 92.7% and the viability, T/C [27] was 112%. For the same molecule, the viability, T/C [28] was 85.3%, the viability, T/C [29] was 68.6% and the viability, T/C [30] was 23.2%. For the same molecule, the viability, T/C [31] was 93.4%, the viability, T/C [32] was 91.4% and the viability, T/C [33] was 114%. It also gave a viability, T/C [34] of 88.8%, a viability, T/C [35] of 66.7% and a viability, T/C [36] of 34.9%.
For `COc1cc(C2c3cc4c(cc3C(OC3OC5COC(C)OC5C(O)C3O)C3COC(=O)C23)OCO4)cc(OC)c1O` (stereo unspecified) + Cc1cnc(CNC(=O)c2c(=O)c3ccc(N4CCCN(C)CC4)nc3n3c2sc2ccccc23)cn1, the pIC50 (second compound 0.0316 µM) was 6.01, the pIC50 (second compound 0.1 µM) was 5.97 and the pIC50 (second compound 0.316 µM) was 5.79. The pIC50 (second compound 1 µM) was > 7.50, the pIC50 (second compound 3.16 µM) was 6.77 and the pIC50 (second compound 10 µM) was > 7.50. For the same molecule, the viability, T/C [1] was 105%, the viability, T/C [2] was 93.9% and the viability, T/C [3] was 78.2%. The viability, T/C [4] was 45.1%, the viability, T/C [5] was 33.3% and the viability, T/C [6] was 15.8%. It also gave a viability, T/C [7] of 70.8%, a viability, T/C [8] of 82.5% and a viability, T/C [9] of 69.3%. For the same molecule, the viability, T/C [10] was 46.5%, the viability, T/C [11] was 37.3% and the viability, T/C [12] was 20%. For the same molecule, the viability, T/C [13] was 80.8%, the viability, T/C [14] was 69.8% and the viability, T/C [15] was 55.9%. The viability, T/C [16] was 53.7%, the viability, T/C [17] was 53.3% and the viability, T/C [18] was 20.3%. For the same molecule, the viability, T/C [19] was 43.6%, the viability, T/C [20] was 50.8% and the viability, T/C [21] was 57.5%. The viability, T/C [22] was 44.9%, the viability, T/C [23] was 42.3% and the viability, T/C [24] was 20%. For the same molecule, the viability, T/C [25] was 50.9%, the viability, T/C [26] was 51% and the viability, T/C [27] was 51.4%. The viability, T/C [28] was 38.8%, the viability, T/C [29] was 30.7% and the viability, T/C [30] was 19.6%. The viability, T/C [31] was 42.7%, the viability, T/C [32] was 35% and the viability, T/C [33] was 45%. The viability, T/C [34] was 47%, the viability, T/C [35] was 33.7% and the viability, T/C [36] was 17.7%.
In the case of `COc1ccc([C@@H](O)c2cc(-c3ncnc4cc(N5CCOCC5)ccc34)c(F)cc2Cl)nn1` + CN(C)c1ccc(Nc2c3ccc(NC(=O)CCN4CCCC4)cc3nc3cc(NC(=O)CCN4CCCC4)ccc23)cc1, the pIC50 (second compound 0.0316 µM) was 5.40, the pIC50 (second compound 0.1 µM) was 5.30 and the pIC50 (second compound 0.316 µM) was 5.39. The pIC50 (second compound 1 µM) was 5.35, the pIC50 (second compound 3.16 µM) was 5.36 and the pIC50 (second compound 10 µM) was 5.64. For the same molecule, the viability, T/C [1] was 102%, the viability, T/C [2] was 102% and the viability, T/C [3] was 117%. It also gave a viability, T/C [4] of 75.9%, a viability, T/C [5] of 59.8% and a viability, T/C [6] of 26.2%. It also gave a viability, T/C [7] of 112%, a viability, T/C [8] of 96% and a viability, T/C [9] of 90.1%. For the same molecule, the viability, T/C [10] was 85.2%, the viability, T/C [11] was 73.3% and the viability, T/C [12] was 22.5%. It also gave a viability, T/C [13] of 95%, a viability, T/C [14] of 92.7% and a viability, T/C [15] of 104%. It also gave a viability, T/C [16] of 82.3%, a viability, T/C [17] of 57.8% and a viability, T/C [18] of 26.3%. It also gave a viability, T/C [19] of 86.5%, a viability, T/C [20] of 93.2% and a viability, T/C [21] of 89.2%. The viability, T/C [22] was 110%, the viability, T/C [23] was 62.8% and the viability, T/C [24] was 19.9%. It also gave a viability, T/C [25] of 98.3%, a viability, T/C [26] of 87.5% and a viability, T/C [27] of 108%. The viability, T/C [28] was 96.4%, the viability, T/C [29] was 61.1% and the viability, T/C [30] was 20.4%. It also gave a viability, T/C [31] of 91.3%, a viability, T/C [32] of 88.1% and a viability, T/C [33] of 111%. It also gave a viability, T/C [34] of 81.1%, a viability, T/C [35] of 37.9% and a viability, T/C [36] of 7.76%.
